As a reminder, the EC50 is the concentration at which the effect is half-maximal. The low end stands for an effect from little substance, the high end for a need for much substance.

No end group written: not given here.

The source of these data is US12534497B2, “TEIPP peptide variant and use as a medicament” (Academisch Ziekenhuis Leiden (h.o.d.n. LUMC), priority 2019, dated 2026).

The test system of assay [1] is LRPAP1-specific T cell clone.
For the next assay, the system named is LRPAP1-specific T cells. The assay can be described thus: In vitro vaccination: SLP-loaded moDC co-cultured with tetramer-enriched autologous T cells, tetramer analysis. The class given is cell-based, human. Particulars: 2 healthy blood donors stimulated 2-3 times with length variants. As for the experimental part:
In short, CD14 monocytes isolated from PBMC of healthy donors were differentiated into dendritic cells by culturing with GM-CSF and IL-4 for 6 days. On day 7, moDCs were plated in 96-well and incubated with 20 uM of V-SLP for 20 h. During the last 18 hours the DCs were matured with […] LPS. On day 8, the moDCs were washed and co-cultured with PBMC enriched for LRPAP1-specific T cells by […]-tetramers. (A) Schematic overview of the in vitro vaccination protocol using two V-variant peptides (C-terminal and N-terminal extended) as synthetic long peptides that require cross-presentation by monocyte-derived dendritic cells for priming of CD8 T cells. […] Control co-cultures were incubated without a peptide. (C) LRPAP1-specific T cell clones were generated via single cell FACS sort and their specificity to the wild type (S-variant) and the V-variant peptide was assessed using two fluorescently labeled tetramers comprising the short wild type sequence (horizontal axis) or the V-substituted peptide (vertical axis) by flow cytometry. Clone 1A8 was generated and described in a previous study^7, and used here as a reference clone. (D) LRPAP1-specific T cells clones were examined for recognition of TAP-deficient melanoma cell lines and their wild-type counterparts. Clones 2H11, 2B9 and 1A10 are shown. Means and SD are shown from one out of two experiments with similar outcome. Clone 1A8, shown in (E), served as positive control. (E) LRPAP1-specific T cells clones were examined for recognition of TAP-deficient melanoma cell lines and their wild-type counterparts. Clones 4B11, 1C5, and 1A8 are shown. Means and SD are shown from one out of two experiments with similar outcome. Clone 1A8, served as positive control. […]
HLA-A*02:01 positive PBMCs were isolated from buffy-coats from consented donors (Sanquin bloodbank, Amsterdam), using a gradient ficoll layer. […] T cell specificity and reactivity were analyzed by flow cytometry.
Tetramer staining on CD8 T cells was performed by 15 min incubation at 4° C. and washed three times with cold PBS/BSA prior to cell surface staining. […] T cell activation was measured by intracellular IFNγ staining (XMF1.2, Biolegend) using an ICS kit (BioLegend) according to manufactures protocol. moDCs were stained with anti-CD1a (clone HI149, BD), anti-CD14 (clone M5E2, BD), anti-CD80 (clone L307.4, BD), anti-CD83 (clone HB15e, BD), anti-CD86 (clone IT2.2, biolegend), and anti HLA-DR (clone G46-6, BD) antibodies for 30 min at 4° C. and washed three times with cold PBS/BSA. Samples were acquired using a BD LSRFortessa™ flow cytometry system and analyzed using FlowJo software (Tree Star). […]

Another assay relates to TAP KO melanoma cells. The experiment in a line: Recognition of TAP-deficient versus wild-type melanoma cells by peptide-induced T cell cultures. The class given is cell-based, human. From the text: (A) Schematic overview of the tetramer pull-down approach and subsequent stimulation with short peptides. (B) Specificity of polyclonal […] peptide isolated T cells (upper panel) or […] peptide isolated T cells (bottom panel) as measured by staining of the T cells with two fluorescently labeled tetramers comprising the short natural sequence (horizontal axis) or the V-substituted peptide (vertical axis) by flow cytometry. (C) Geomeans for double tetramer positive cells on […] or […] peptide isolated T cells. (D) IFNy and GM-CSF production of polyclonal T cell bulks when stimulated with peptide pulsed EBV-JY cells as measured by ELISA. Means and SD are plotted of one out of three independent experiments. (E) Reactivity of these polyclonal T cell bulks when stimulated with wild-type and TAP knock out 518A2 melanoma cells (rendered TAP-deficient by CRISPR/CAS9 technology) or no tumor cells (control) as measured by indicated cytokine production using ELISA.
18-mer (also referred to as 18-meer) is SEQ ID NO: 4; 21-mer (also referred to as 21-meer) SEQ ID NO: 5; 24-mer (also referred to as 24-meer) is SEQ ID NO:6; and 27-mer (also referred to as 27-meer) is SEQ ID NO: 7. […]
To test the functionality of these T cell bulks, cytokine responses were measured towards both short peptides pulsed on immortalized HLA-A*0201 positive B cells (FIG. 2d). […]

For assay [2], the system named is TCR-transduced CD8 T cells. The assay can be described thus: Reactivity of TCR-transduced T cells to peptide pulsed EBV-JY cells (cytokine ELISA). Format: cell-based, human. To be noted: V-variant compared with S-variant peptide. From the text: (B) TCRαβ gene transduction into T cells from a healthy donor. The introduced genes contain the murine TCR-αβ domain which enhances correct pairing of transgenic alpha and beta chains. Expression of this domain is confirmed in TCR-transduced T cells (on the horizontal axis). (C) Staining of TCRαβ transduced CD8 T cells with fluorescently labeled tetramers comprising the short natural peptide sequence (left panel) or the V-substituted peptide (right panel). (D) Functional reactivity of tetramer-enriched TCR-transduced T cells to peptide pulsed EBV-JY cells as measured by indicated cytokine production using ELISA. Means and SD are depicted from one out of three experiments with similar outcome. […] TCR-transduced T cells were stimulated with either the wild type version of two different melanoma cell lines, or their TAP knock out (TAP KO) variants generated by CRISPR/CAS9 technology. […] T cells only served as control.
Platinum-Amphotropic retrovirus production (Plat-A) retroviral packing cells (Cell Biolabs) were used for retrovirus production. Plat-A cells were seeded in 6-well plates and incubated overnight until fully attached. Next, the cells were transfected with 2 μg pMP71_1A8 TCR vector using lipofectamine 2000. Retrovirus supernatant was collected on 24 h and 48 h after transfection, spun down to remove cells, and stored in −80° C. […]
A general note: ELISA stands for enzyme-linked immunosorbent assay.

The next assay addresses HLA-A*0201 (Homo sapiens, UniProt P04439, D140Y/D185E/D98H/E176V/E277Q/G131W/G231S/I119V/I121R/I166T/I218V/L300P/L318F/N151K/N90K/P208A/P217A/Q86G/Q94H/R138H/R169H/T345S). Particulars: previous studies; cited from earlier work.
Assay [3] concerns monocyte-derived dendritic cells. The assay can be described thus: Cross-presentation of long peptides by monocyte-derived dendritic cells, read out by LRPAP1-specific CD8 T cell clone cytokine release. Format: cell-based, human. Particulars: positive control on moDC. The protocol: (A) Monocyte-derived dendritic cells were incubated with indicated long peptides comprising the LRPAP1 epitope and co-cultured with a TEIPP-specific CD8 T cell clone 1A8. Non-natural flanking amino acids at the amino-terminus, or natural flanking amino acids at the carboxy-terminus or natural flanking amino acids at both ends were used to elongate the minimal epitope. GM-CSF secretion by the TEIPP-specific T cell clone was used to determine cross-presentation efficiency and pulsing with short peptide ([…]) was used as positive control. (B) Predicted HLA-A2*01 binding affinity scores of LRPAP1 peptides with substituted amino acids at the C-terminal p9 (MHCnet 4.0 algorithm). Binding affinity score was calculated on basis of the IC50 values and ranking percentage (see Table 2 for exact values). (C) Predicted proteasome cleavage activity for four different LRPAP1 peptides using NetCHop 3.1 algorithm. […] (D) Functional T cell avidity was measured as GM-CSF secretion by TEIPP-specific T cell clone stimulated with short peptide—pulsed EBV-JY cells in serial dilutions of the peptides. […] (E) EC50 values were calculated from values obtained in D (wherein EC values represent the dose of peptide resulting in half of the maximal response to that particular peptide variant). […] Cross-presentation of the indicated long peptides was determined by T cell clone. […]

Consider FLGPWPAAL [FLGPWPAAL], for which, in assay [1], the EC50 came out at 3.7 µg/mL.

For RRVRSFLRGLPALLLLLLFLGPWPAAV [27-mer], the “expansion of HLA-A*02:01 FLGPWPAAS-specific CD8+ T cells” value (“expansion” below) in the assay with LRPAP1-specific T cells is “able to stimulate the expansion”.

For RSFLRGLPALLLLLLFLGPWPAAV [24-mer], the “recognition of TAP KO versus TAP proficient melanoma cell lines by long peptide stimulated T cell cultures” value with TAP KO melanoma cells (co-cultures with TAP proficient and TAP KO melanoma cell lines) is “preferentially recognize the TAP KO melanoma cells”. The “expansion” value with LRPAP1-specific T cells was “able to stimulate the expansion”.

Turning to LRGLPALLLLLLFLGPWPAAV [21-mer], the “expansion” value with LRPAP1-specific T cells is given as “able to stimulate the expansion”.

With FLGPWPAAV, the “recognition of TAP-negative versus wild type melanoma by peptide induced polyclonal T cell cultures” value with TAP KO melanoma cells (518A2 melanoma cell line) was “preferred recognition of the TAP-negative tumor line”. The sequence further came in with an EC50 in assay [1] of 0.1 µg/mL. Also, the “fold better T cell activation” value in assay [1] (V versus S at the C-terminus) stood at 19 fold. Further, the “cytokine response compared to the S-peptide” value in assay [1] (short peptide variants exogenously pulsed, titrated concentrations) is given as “more potent”. Also, in assay [2], the “cytokine responses of TCR-transduced T cells” value was “stronger cytokine responses”.

With FLGPWPAAS, the “binding affinity onto HLA-A*0201” value on HLA-A*0201 is recorded as “moderate”. This sequence also registered an EC50 in assay [1] of 1.9 µg/mL. Also, in assay [3], the “T cell stimulation by exogenous pulsing of short peptide” value is “did stimulate the T cells”.

For the sequence FLGPWPAAI, in assay [1], the EC50 stood at 0.7 µg/mL.

LPALLLLLLFLGPWPAAV [18-mer]: the “expansion” value in the assay with LRPAP1-specific T cells is on record as “able to stimulate the expansion”.
